Measured values as given in patent US20200370056A1, “CELL LINES AND METHODS FOR INCREASED PROTEIN PRODUCTION” (ASTRAZENECA AB, priority 2017, published 2020).

How the values were obtained:
[1] = test system: HEK293 CriptoFC 1B8 cell line; assay: Cripto-FC expression by flow cytometry, concentration response; format: cell-based; conditions: Homo sapiens, Cripto-FC model protein, 10 point concentration response, top concentration 6 μM, read-out: pAC50 for Improved Protein Expression, Cripto-FC (converted)
Experimental: Human Embryonic Kidney (HEK) cells, Expi293F cell line, were co-transfected using Expifectamine with vectors for targeted integration of one of three model proteins, Cripto-Fc, PLAP and hGFRα2, and a vector expressing Zinc Finger Nucelases that target the AAVS1 locus in the genome. As shown below in Table 3, Cripto-Fc served as a high volume expressing protein, PLAP a medium expressing protein, and hGFRα2 as a low expressing protein. After 48 hours, selection with puromycin blasticidin were applied to enrich for cells with the vectors integrated. After 14 days, cells were sorted by flow cytometry as single cells in 96 well plates. After single colonies were isolated the cells were expanded and analyzed to determine the gene copy number of the recombinant target gene in each clone. […]
To confirm hits from the primary screen, the available positive hits were subjected to the counter screening without addition of antibody-conjugates to remove flourescent compounds. In parallel, a 10 point concentration response curve with a top concentration of 6 μM for each of the compounds was determined. Only compounds that lacked inherent fluorescence, and increased protein expression with at least 30% in a dose-dependent mariner were counted as confirmed hits. […]

HEK293 PLAP cell line = assay: PLAP expression by secreted enzymatic activity (p-Nitrophenyl phosphate, 405 nm); format: cell-based; conditions: Homo sapiens, PLAP model protein, enzymatic activity readout, read-out: pAC50 for Improved Protein Expression, PLAP (converted)
Experimental: An additional study was performed on different cells expressing GRFα2 and PLAP. The same assay performed on HEk293 CriptoFC 1B8 was performed on a cell line containing a single gene copy of GFRA2. […] The activity measurement for PLAP is based on the degradation of p-Nitrophenyl phosphate to p-Nitrophenyl which can be followed as an increase in absorbance at 405 nm.

ULK1 = target: T1, ULK1 (Homo sapiens, UniProt O75385); conditions: cited from earlier work
T1 sequence (O75385 1-1050): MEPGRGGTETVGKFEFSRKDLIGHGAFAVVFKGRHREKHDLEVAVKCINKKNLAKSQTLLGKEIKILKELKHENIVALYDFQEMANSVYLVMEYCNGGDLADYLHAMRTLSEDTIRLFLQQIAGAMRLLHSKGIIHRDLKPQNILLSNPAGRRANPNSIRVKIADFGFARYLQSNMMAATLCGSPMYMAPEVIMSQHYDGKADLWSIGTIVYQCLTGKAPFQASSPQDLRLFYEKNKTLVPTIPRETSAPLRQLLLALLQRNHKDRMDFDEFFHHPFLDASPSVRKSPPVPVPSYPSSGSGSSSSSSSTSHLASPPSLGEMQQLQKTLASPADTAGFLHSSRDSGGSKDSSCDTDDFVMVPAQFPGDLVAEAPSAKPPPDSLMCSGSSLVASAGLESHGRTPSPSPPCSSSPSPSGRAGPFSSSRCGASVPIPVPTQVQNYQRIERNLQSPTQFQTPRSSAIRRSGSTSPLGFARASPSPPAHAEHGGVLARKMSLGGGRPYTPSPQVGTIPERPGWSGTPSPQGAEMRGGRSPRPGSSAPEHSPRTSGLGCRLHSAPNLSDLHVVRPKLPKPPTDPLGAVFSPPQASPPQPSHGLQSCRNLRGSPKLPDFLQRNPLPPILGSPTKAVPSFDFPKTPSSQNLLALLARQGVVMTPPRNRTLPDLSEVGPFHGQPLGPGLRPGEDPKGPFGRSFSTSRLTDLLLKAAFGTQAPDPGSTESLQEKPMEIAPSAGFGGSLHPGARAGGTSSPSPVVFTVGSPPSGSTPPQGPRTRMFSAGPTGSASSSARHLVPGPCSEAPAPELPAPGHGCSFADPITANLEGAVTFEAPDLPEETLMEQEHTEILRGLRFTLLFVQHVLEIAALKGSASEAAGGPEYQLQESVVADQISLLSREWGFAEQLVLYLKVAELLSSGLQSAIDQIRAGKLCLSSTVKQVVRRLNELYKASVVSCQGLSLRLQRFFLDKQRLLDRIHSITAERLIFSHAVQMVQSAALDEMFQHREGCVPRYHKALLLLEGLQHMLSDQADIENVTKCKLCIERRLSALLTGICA

For `CN1CCc2cc(Nc3ncc(C4CC4)c(NCCCNC(=O)C4CCC4)n3)ccc2C1` [MRT68921], the AC50 [1] is listed as 79.4 nM, the AC50 (HEK293 PLAP cell line) is listed as 60.3 nM and the IC50 (ULK1) is listed as ~2.9 nM.
